Tests used:
Type in all cases: in vivo
Plasmopara viticola = assay: Test B: preventive spray on grape seedlings, grape downy mildew, disease rating
Excerpt: General protocol for preparing test solutions for Tests AG: the test compounds were first dissolved in acetone in an amount equal to 3% of the final volume and then suspended at the desired concentration (in ppm) in acetone and purified water (50/50 mix by volume) containing the surfactant PEG400 (polyhydric alcohol esters). The resulting test suspensions were then used in Tests AG. Compounds were sprayed at a concentration of 250 ppm or other indicated rate to the point of run-off on the test plants. The test solution was sprayed to the point of run-off on grape seedlings. […] A dash (-) indicates no test results.

Botrytis cinerea = assay: Test C: preventive spray on tomato seedlings, gray mold, visual disease rating; conditions: for pest or weed control at 250 ppm: Botrytis cinerea
Outline: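 Compounds predissolved in acetone (3% of final volume), then suspended in 50/50 acetone/water with PEG400 surfactant. Sprayed preventively at 250 ppm or other indicated rate to run-off on tomato seedlings before Botrytis challenge; disease rated visually.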

Zymoseptoria tritici = assay: Test E: preventive spray on wheat seedlings, wheat leaf blotch, visual disease rating; conditions: for pest or weed control at 250 ppm: Zymoseptoria tritici
Outline: (§1)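 Preventive foliar spray of wheat seedlings to run-off, at 250 ppm or other indicated rate. Compounds dissolved in acetone (3% of final volume), suspended in 50/50 acetone–water with PEG400 surfactant. Disease rated visually.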

Phytophthora infestans = assay: whole plant or invertebrate; conditions: for pest or weed control at 250 ppm: Phytophthora infestans, in Solanum lycopersicum, read-out: Test D disease control rating; for Test D disease control rating: tomato seedlings
[1] = tested on: Erysiphe graminis f. sp. tritici; assay: Test G: preventive spray on wheat seedlings, wheat powdery mildew, visual disease rating; conditions: for pest or weed control at 250 ppm: Blumeria graminis, 192 h
Outline: as §1

[2] = tested on: Puccinia recondita f. sp. tritici; assay: Test F: preventive spray on wheat seedlings, wheat leaf rust, visual disease rating; conditions: for pest or weed control at 250 ppm: Puccinia recondita
Outline: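 Compounds were dissolved in acetone/water (50/50) with PEG400 surfactant and sprayed to run-off on wheat seedlings, at 250 ppm unless another rate is indicated. The next day, seedlings were inoculated with a Puccinia recondita f. sp. tritici spore suspension; disease was rated visually.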

Phakopsora pachyrhizi = assay: Test A: preventive spray on soybean seedlings, Asian soybean rust, visual disease rating; conditions: 250 ppm, 100 = 100% disease control, 0 = no control
[3] = 250 ppm, 100 = 100% disease control, 0 = no control

Compound | Test B disease control rating (Plasmopara viticola; [3]) | Test C disease control rating (Botrytis cinerea; [3]) | Test E disease control rating (Zymoseptoria tritici; [3]) | Test D disease control rating (Phytophthora infestans; [3]) | Test G disease control rating [1, 3] | Test F disease control rating [2, 3] | also measured
Cn1ncc(O)c(C(=O)Nc2ccc(C(F)(F)F)cc2)c1=O [Compound 2, 2,3-Dihydro-5-hydroxy-2-methyl-3-oxo-N-[4-(trifluoromethyl)phenyl]-4-pyridazinecarboxamide] | 97% |  |  |  |  |  | pest or weed control at 250 ppm (Botrytis cinerea; [3]): 0%; pest or weed control at 250 ppm (Zymoseptoria tritici; [3]): 97%; pest or weed control at 250 ppm (Phytophthora infestans): 99%; pest or weed control at 250 ppm [1, 3]: 97%; pest or weed control at 250 ppm [2, 3]: 100%
Cn1ncc(O)c(C(=O)Nc2ccc(Cl)nc2)c1=O [Compound 6] | 85% | 99% | 57% | 88% | 0% | 99% | 
Cc1nnc(NC(=O)c2c(O)cnn(C)c2=O)s1 [Compound 13] | 65% | 0% | 0% | 0% | 0% | 0% | 
Cn1ncc(O)c(C(=O)Nc2ccc(OC(F)(F)F)cc2)c1=O [Compound 21, 2,3-Dihydro-5-hydroxy-2-methyl-3-oxo-N-[4-(trifluoromethoxy)phenyl]-4-pyridazinecarboxamide] | 93% |  |  |  |  |  | pest or weed control at 250 ppm (Botrytis cinerea; [3]): 0%; pest or weed control at 250 ppm (Zymoseptoria tritici; [3]): 98%; pest or weed control at 250 ppm (Phytophthora infestans): 97%; pest or weed control at 250 ppm [1, 3]: 98%; pest or weed control at 250 ppm [2, 3]: 99%
Cn1nc(-c2ccccc2)c(O)c(C(=O)Nc2ccccc2C(F)(F)F)c1=O [Compound 26] | 49% | 0% | 0% | 58% | 84% | 68% | 
Cn1ncc(O)c(C(=O)Nc2ccc(Cl)cc2Cl)c1=O [Compound 37] | 86% | 0% | 51% | 95% | 76% | 94% | 
Cn1ncc(O)c(C(=O)Nc2ncc(Cl)cn2)c1=O [Compound 38] | 20% | 0% | 0% | 0% | 0% | 68% | 
Cn1ncc(O)c(C(=O)NC2CCCCC2)c1=O [Compound 39] | 70% | 0% | 0% | 0% | 69% | 0% | 
Cn1ncc(O)c(C(=O)Nc2ncccc2Cl)c1=O [Compound 45] | 88% | 99% | 0% | 94% | 0% | 98% | 
CC(=O)Oc1cnn(C)c(=O)c1C(=O)N(C(C)=O)c1ccc(OC(F)(F)F)cc1 [Compound 84] |  |  |  |  |  |  | Test B disease control rating (Plasmopara viticola; 280 ppm): 99%; Test C disease control rating (Botrytis cinerea; 280 ppm): 0%; Test E disease control rating (Zymoseptoria tritici; 280 ppm): 100%; Test D disease control rating (Phytophthora infestans; 280 ppm): 100%; Test G disease control rating ([1]; 280 ppm): 99%; Test F disease control rating ([2]; 280 ppm): 100%
COC(=O)N(C(=O)c1c(OC(C)=O)cnn(C)c1=O)c1ccc(OC(F)(F)F)cc1 [Compound 88] |  |  |  |  |  |  | Test B disease control rating (Plasmopara viticola; 50 ppm): 91%; Test C disease control rating (Botrytis cinerea; 50 ppm): 0%; Test E disease control rating (Zymoseptoria tritici; 50 ppm): 32%; Test D disease control rating (Phytophthora infestans; 50 ppm): 57%; Test G disease control rating ([1]; 50 ppm): 89%; Test F disease control rating ([2]; 50 ppm): 83%
Cn1ncc2oc(=O)n(-c3ccc(OC(F)(F)F)cc3)c(=O)c2c1=O [Compound 89, 6-Methyl-3-[4-(trifluoromethoxy)phenyl]-2H-pyridazino[4,5-e]-1,3-oxazine-2,4,5(3H,6H)-trione] | 99% |  |  |  |  |  | pest or weed control at 250 ppm (Botrytis cinerea; [3]): 0%; pest or weed control at 250 ppm (Zymoseptoria tritici; [3]): 97%; pest or weed control at 250 ppm (Phytophthora infestans): 67%; pest or weed control at 250 ppm [1, 3]: 61%; pest or weed control at 250 ppm [2, 3]: 99%
COc1ccc(NC(=O)c2c(O)cnn(C)c2=O)cc1 [Compound 92] | 92% | 99% | 59% | 68% | 35% | 89% | 
Cc1ccc(NC(=O)c2c(O)cnn(C)c2=O)cc1 [Compound 93] | 94% | 15% | 65% | 93% | 87% | 91% | 
Cc1cc(C(F)(F)F)ccc1NC(=O)c1c(O)cnn(C)c1=O [Compound 117] | 100% | 0% |  | 97% | 90% | 99% | Test A disease control rating (Phakopsora pachyrhizi): 0%
O=C(Nc1ccc(OC(F)(F)F)cc1)c1c(O)cnn(CC(F)(F)F)c1=O [Compound 119] | 100% | 0% | 73% | 87% | 99% | 97% | 
O=C(Nc1ccc(OC(F)(F)F)cc1)c1c(O)cnn(C2CC2)c1=O [Compound 120] | 98% | 0% |  | 97% | 89% | 96% | Test A disease control rating (Phakopsora pachyrhizi): 13%
CN(C)c1cnn(C)c(=O)c1C(=O)Nc1ccc(C(F)(F)F)cc1F [Compound 128] | 100% | 0% |  | 67% | 0% | 68% | Test A disease control rating (Phakopsora pachyrhizi): 79%
Cn1ncc(O)c(C(=O)Nc2ccc(S(=O)(=O)C(F)(F)F)cc2)c1=O [Compound 129] | 98% | 0% |  | 82% | 81% | 89% | Test A disease control rating (Phakopsora pachyrhizi): 0%
CC(C)n1ncc(O)c(C(=O)Nc2ccc(OC(F)(F)F)cc2)c1=O [Compound 131] | 98% | 0% | 51% | 99% | 100% | 91% | 
Cn1ncc(O)c(C(=O)Nc2c(Cl)cc(OC(F)(F)F)cc2Cl)c1=O [Compound 133] | 100% | 0% | 100% | 89% | 100% | 86% | 
O=C(Nc1ccc(OC(F)(F)F)cc1)c1c(O)cn[nH]c1=O [Compound 136] | 100% | 0% |  | 91% | 0% | 93% | Test A disease control rating (Phakopsora pachyrhizi): 0%
Cn1ncc(O)c(C(=O)Nc2ccc(C(F)(F)C(F)(F)F)cc2)c1=O [Compound 138] | 100% | 0% | 99% | 99% | 99% | 100% | 
Cn1ncc(O)c(C(=O)Nc2c(Cl)cccc2Cl)c1=O [Compound 141] | 96% | 0% |  |  | 64% | 68% | Test A disease control rating (Phakopsora pachyrhizi): 50%
Cn1ncc(O)c(C(=O)Nc2ccc(OC(F)(F)F)cc2C(F)(F)F)c1=O [Compound 148] | 79% | 0% | 79% |  | 98% | 86% | 
N-(4-Bromophenyl)-2,3-dihydro-5-hydroxy-2-methyl-3-oxo-4-pyridazinecarboxamide [Compound 75] | 86% | 0% | 83% | 93% | 13% | 98% | 

Source: patent publication US20190133128A1, “Fungicidal pyridazinones” (FMC Corporation, priority 2017, published 2019)
